Measured values as given in the NIST ThermoML archive (doi:10.1016/j.fluid.2014.12.023).
Several values for one entry are separate records, joined by “and”; a condition that tells them apart may be missing. Equal entries are not always repeated. ± gives the expanded uncertainty stated by the source.

Conditions: Liquid, Transpiration method

Fc1ccccc1I [1,2-fluoroiodobenzene]
Conditions	vapor or sublimation pressure
282.8 K	0.0397 ± 0.0028 kPa
285.7 K	0.0483 ± 0.0035 kPa and 0.0493 ± 0.0035 kPa
288.7 K	0.0638 ± 0.0046 kPa
289.5 K	0.0686 ± 0.0049 kPa
292.5 K	0.0843 ± 0.006 kPa
296.4 K	0.1111 ± 0.0079 kPa
298.4 K	0.1269 ± 0.0091 kPa
301.4 K	0.1633 ± 0.012 kPa
303.4 K	0.1819 ± 0.013 kPa
306.4 K	0.2238 ± 0.016 kPa
308.4 K	0.25 ± 0.018 kPa
311.3 K	0.2939 ± 0.021 kPa
313.4 K	0.3289 ± 0.024 kPa
316.4 K	0.4201 ± 0.03 kPa
317.5 K	0.4348 ± 0.031 kPa
318.4 K	0.4686 ± 0.033 kPa
321.4 K	0.5638 ± 0.04 kPa
323.5 K	0.6216 ± 0.044 kPa
326.5 K	0.7364 ± 0.052 kPa
327.5 K	0.7616 ± 0.054 kPa
328.6 K	0.8217 ± 0.058 kPa

Fc1cccc(I)c1 [1,3-fluoroiodobenzene]
Conditions	vapor or sublimation pressure
275.2 K	0.0326 ± 0.0023 kPa
280.4 K	0.0474 ± 0.0034 kPa
283.4 K	0.0571 ± 0.004 kPa
283.8 K	0.058 ± 0.0041 kPa
284.9 K	0.0625 ± 0.0045 kPa
286.8 K	0.0746 ± 0.0053 kPa
288.2 K	0.082 ± 0.0058 kPa
288.7 K	0.0861 ± 0.0061 kPa and 0.0802 ± 0.0058 kPa
290.7 K	0.0986 ± 0.007 kPa
292.6 K	0.1122 ± 0.0079 kPa
293.2 K	0.1154 ± 0.008 kPa
293.6 K	0.1137 ± 0.008 kPa
296.7 K	0.1436 ± 0.01 kPa
297.6 K	0.1513 ± 0.011 kPa and 0.1481 ± 0.011 kPa
300.6 K	0.184 ± 0.013 kPa
302.5 K	0.2085 ± 0.015 kPa
305.6 K	0.256 ± 0.018 kPa
307.5 K	0.2849 ± 0.02 kPa
307.6 K	0.2932 ± 0.021 kPa and 0.3026 ± 0.021 kPa
310.6 K	0.364 ± 0.026 kPa and 0.3464 ± 0.025 kPa
312.5 K	0.4094 ± 0.029 kPa and 0.3873 ± 0.027 kPa
315.6 K	0.4642 ± 0.033 kPa
315.7 K	0.4836 ± 0.034 kPa
317.6 K	0.516 ± 0.036 kPa
317.7 K	0.5427 ± 0.038 kPa
319.6 K	0.5968 ± 0.042 kPa

Fc1ccc(I)cc1 [1,4-fluoroiodobenzene]
Conditions	vapor or sublimation pressure
276.5 K	0.0329 ± 0.0024 kPa
279.7 K	0.04219 ± 0.003 kPa
283.9 K	0.05918 ± 0.0042 kPa and 0.0586 ± 0.0042 kPa
286.5 K	0.07144 ± 0.0051 kPa
289.4 K	0.08532 ± 0.0061 kPa and 0.08615 ± 0.0062 kPa
293.3 K	0.1163 ± 0.0083 kPa
298.1 K	0.1638 ± 0.012 kPa
303 K	0.2198 ± 0.016 kPa
308.1 K	0.3015 ± 0.021 kPa
312.9 K	0.4121 ± 0.029 kPa
317.9 K	0.547 ± 0.038 kPa

Fc1ccccc1Br [1-bromo-2-fluorobenzene]
Conditions	vapor or sublimation pressure [kPa]
278.5 K	0.1247 ± 0.0092
279.4 K	0.1385 ± 0.0098
280.6 K	0.1422 ± 0.01
282.3 K	0.1684 ± 0.012
282.5 K	0.1604 ± 0.011
283.4 K	0.1716 ± 0.012
284.5 K	0.1843 ± 0.013
285.5 K	0.2081 ± 0.015
288.7 K	0.262 ± 0.018
291.7 K	0.3115 ± 0.022
294.5 K	0.3837 ± 0.027
297.5 K	0.4636 ± 0.033
300.3 K	0.5578 ± 0.039
303.5 K	0.6675 ± 0.047
306.6 K	0.8 ± 0.057
309.5 K	0.944 ± 0.067
312.6 K	1.141 ± 0.081
315.4 K	1.338 ± 0.095
318.6 K	1.61 ± 0.11
321.4 K	1.858 ± 0.13
324.3 K	2.174 ± 0.15

Fc1cccc(Br)c1 [1-bromo-3-fluorobenzene]
Conditions	vapor or sublimation pressure [kPa]
280.8 K	0.2278 ± 0.017
283.4 K	0.2912 ± 0.02
283.7 K	0.2875 ± 0.02
284.7 K	0.3109 ± 0.022
286.6 K	0.3559 ± 0.025
287.7 K	0.3711 ± 0.026
288.7 K	0.403 ± 0.029
289.4 K	0.4245 ± 0.03
292.5 K	0.5168 ± 0.036
293.4 K	0.5476 ± 0.039
295.3 K	0.6202 ± 0.044
298.4 K	0.7441 ± 0.052
299.7 K	0.8106 ± 0.057
301.5 K	0.8784 ± 0.062
302.4 K	0.9483 ± 0.067
305.8 K	1.125 ± 0.079
308.5 K	1.312 ± 0.092
311.6 K	1.541 ± 0.11
314.6 K	1.819 ± 0.13
317.6 K	2.138 ± 0.15

Fc1ccc(Br)cc1 [1-bromo-4-fluorobenzene]
Conditions	vapor or sublimation pressure [kPa]
278.2 K	0.1662 ± 0.012
281.3 K	0.2043 ± 0.015
283.5 K	0.2384 ± 0.017
284.4 K	0.2446 ± 0.017
286.5 K	0.285 ± 0.02
287.3 K	0.2956 ± 0.021
289.4 K	0.3532 ± 0.025
290.2 K	0.3668 ± 0.026
292.4 K	0.4087 ± 0.029
295.4 K	0.5144 ± 0.036
296.1 K	0.5283 ± 0.037
298.3 K	0.6028 ± 0.043
300.1 K	0.6822 ± 0.048
301.4 K	0.7138 ± 0.05
304.4 K	0.8461 ± 0.06
307.6 K	0.9874 ± 0.07
310.5 K	1.204 ± 0.085
313.4 K	1.41 ± 0.1
316.4 K	1.673 ± 0.12

Fc1ccccc1Cl [1-chloro-2-fluorobenzene]
Conditions	vapor or sublimation pressure
277.5 K	0.3411 ± 0.024 kPa
280.6 K	0.4191 ± 0.03 kPa and 0.4312 ± 0.031 kPa
283.5 K	0.5098 ± 0.036 kPa
283.6 K	0.5041 ± 0.036 kPa
286.4 K	0.6241 ± 0.044 kPa
286.6 K	0.6176 ± 0.044 kPa
289.5 K	0.7705 ± 0.054 kPa
289.6 K	0.7749 ± 0.055 kPa
292.4 K	0.8974 ± 0.063 kPa
295.7 K	1.093 ± 0.077 kPa
298.5 K	1.268 ± 0.09 kPa
301.3 K	1.521 ± 0.11 kPa
304.1 K	1.795 ± 0.13 kPa
307.4 K	2.169 ± 0.15 kPa
310.1 K	2.497 ± 0.18 kPa
313.6 K	3.121 ± 0.22 kPa
316.3 K	3.551 ± 0.25 kPa
319.2 K	4.226 ± 0.3 kPa

Fc1cccc(Cl)c1 [1-chloro-3-fluorobenzene]
Conditions	vapor or sublimation pressure [kPa]
275.8 K	0.4412 ± 0.031
280.1 K	0.5829 ± 0.041
283.1 K	0.7061 ± 0.05
286 K	0.8315 ± 0.059
288.9 K	1.031 ± 0.073
292 K	1.237 ± 0.087
295.1 K	1.491 ± 0.11
298.1 K	1.767 ± 0.12
301 K	2.096 ± 0.15
304.1 K	2.469 ± 0.17
307.3 K	2.963 ± 0.21
310.3 K	3.568 ± 0.25
313.3 K	4.106 ± 0.29
316.5 K	4.927 ± 0.35
319.5 K	5.737 ± 0.4

Fc1ccc(Cl)cc1 [1-chloro-4-fluorobenzene]
Conditions	vapor or sublimation pressure [kPa]
277.6 K	0.6008 ± 0.043
280.6 K	0.7421 ± 0.053
283.2 K	0.8729 ± 0.062
286.2 K	1.057 ± 0.075
289.3 K	1.259 ± 0.089
292.4 K	1.527 ± 0.11
295.7 K	1.87 ± 0.13
296.9 K	1.982 ± 0.14
299.8 K	2.405 ± 0.17
302.7 K	2.858 ± 0.2
305.7 K	3.285 ± 0.23
308.4 K	3.855 ± 0.27
311.6 K	4.575 ± 0.32
314.3 K	5.275 ± 0.37
317.6 K	6.059 ± 0.43
320.4 K	7.146 ± 0.5
323.5 K	8.51 ± 0.6
